Measurements from US4293549A, “Quinolinyl guanidines having antiinflammatory, analgesic or antipyretic activity” (Leo Pharmaceutical Products Ltd. A/S (Lovens Kemiske Fabrik, priority 1977, dated 1981).

What was measured:
pain threshold = assay: Analgetic effect in rats (Randall and Selitto); format: in vivo; settings: 2 hrs after administration
[1] = tested on: carrageenin induced edema; assay: Inhibition of carrageenin edema in rats; format: in vivo; settings: 1 hr before carrageenin
Procedure: Inhibitory activity toward carrageenin induced edema was assessed in rats using the technique of Winter C. A., Risley E. A., Nuss C. […] The compounds were orally administered suspended in 0.5% carboxymethylcellulose to 18 hrs fasting animals, 1 hr before the injection of carrageenin.

stomachs = assay: Gastro ulcerogenic activity in rats; format: in vivo; settings: 24 hrs; for Mean severity: scale 0=no lesion to +4=perforation
Procedure: Rats fasted for 9 hrs before treatment were given different doses of the compounds. 24 hrs later the animals were killed, the stomachs were removed, opened along the lesser curvature and gross examined for the presence of lesions and their severity. The severity was assessed according to an arbitrary scale from 0=no lesion to +4=perforation.

[2] = tested on: adjuvant induced arthritis; assay: Inhibition of adjuvant induced arthritis in rats; format: in vivo
Description: The compounds were orally administered suspended in 0.5% carboxymethylcellulose, daily, from the day of adjuvant injection to 28 days later.

[3] = Acute toxicity in mice after oral administration; settings: mouse, in vivo, p.os, mortality assessed eight days after administration, read-out: LD50 (with confidence limits)
Procedure: The acute toxicity was determined in mice after oral administration. The mortality was assessed eight days after the administration and the LD50 (dose causing the death of 50% of the animals treated) was calculated according to the statistical method of Litchfield and Wilcoxon (J.Pharmacol.Exp.Ther. 96, 99, (1949)).

[4] = Antipyretic effect in rats; format: in vivo; settings: over 180 min
Procedure: The compounds were orally administered and the antipyretic index evaluated over 180 min. of the experiment.

prostaglandin synthetase = molecular target: T1, prostaglandin synthetase (Bos taurus, UniProt O62664); assay: Inhibition of prostaglandin synthetase (bovine seminal vesicle homogenate); format: biochemical; settings: lyophilized high speed precipitate of bovine seminal vesicle homogenate
T1 construct: lyophilized high speed precipitate of bovine seminal vesicle homogenate as enzyme; from tissue; host or cells: bovine seminal vesicle homogenate, lyophilized high speed precipitate
T1 sequence (O62664 25-600): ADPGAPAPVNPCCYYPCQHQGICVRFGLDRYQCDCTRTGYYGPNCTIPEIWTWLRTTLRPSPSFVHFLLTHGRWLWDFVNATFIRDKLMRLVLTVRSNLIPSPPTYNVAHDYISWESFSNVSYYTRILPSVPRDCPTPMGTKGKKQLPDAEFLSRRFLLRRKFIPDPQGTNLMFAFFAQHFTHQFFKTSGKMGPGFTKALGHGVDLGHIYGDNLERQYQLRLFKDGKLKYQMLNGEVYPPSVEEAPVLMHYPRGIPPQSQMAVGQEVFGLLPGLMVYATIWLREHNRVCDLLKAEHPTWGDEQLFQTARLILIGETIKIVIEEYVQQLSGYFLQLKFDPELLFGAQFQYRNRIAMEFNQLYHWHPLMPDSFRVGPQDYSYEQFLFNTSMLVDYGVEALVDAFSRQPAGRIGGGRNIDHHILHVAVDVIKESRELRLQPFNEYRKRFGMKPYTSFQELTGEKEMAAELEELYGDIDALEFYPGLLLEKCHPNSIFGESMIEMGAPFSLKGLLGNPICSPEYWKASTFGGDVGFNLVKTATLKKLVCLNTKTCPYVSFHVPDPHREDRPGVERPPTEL

COc1ccc2c(c1)c(CC(=O)O)c(C)n2C(=O)c1ccc(Cl)cc1 [Indomethacin, reference compound]
Increase of pain threshold (pain threshold; oral dose 1 mg/kg): 19 mmHg | Increase of pain threshold (pain threshold; oral dose 3 mg/kg): 34 mmHg | % Inhibition 3 hrs after carrageenin ([1]; oral dose 0.5 mg/kg): 34% | % Inhibition 3 hrs after carrageenin ([1]; oral dose 1 mg/kg): 42% | % Inhibition 3 hrs after carrageenin ([1]; oral dose 10 mg/kg): 65% | % with lesions (stomachs; oral dose 5 mg/kg): 20% | Mean severity (stomachs; oral dose 5 mg/kg): 1.3 | % with lesions (stomachs; oral dose 10 mg/kg): 70% | Mean severity (stomachs; oral dose 10 mg/kg): 2.8 | % Inhibition of the swelling, 18th day, primary ([2]; daily oral dose 0.3 mg/kg): 20.3% | % Inhibition of the swelling, 18th day, secondary ([2]; daily oral dose 0.3 mg/kg): 13.5% | % Inhibition of the swelling, 28th day, primary ([2]; daily oral dose 0.3 mg/kg): 25.9% | % Inhibition of the swelling, 28th day, secondary ([2]; daily oral dose 0.3 mg/kg): 29.7% | % Inhibition of the swelling, 18th day, primary ([2]; daily oral dose 1 mg/kg): 62.4% | % Inhibition of the swelling, 18th day, secondary ([2]; daily oral dose 1 mg/kg): 66.2% | % Inhibition of the swelling, 28th day, primary ([2]; daily oral dose 1 mg/kg): 80.5% | % Inhibition of the swelling, 28th day, secondary ([2]; daily oral dose 1 mg/kg): 76.8% | LD50 at 192 h [3]: 23 mg/kg

Cc1cc(/N=C(\Nc2nccs2)NC2CCCCC2)c2ccccc2n1 [SR 1368, N-Cyclohexyl-N"-4-(2-methylquinolyl)-N'-2-thiazolylguanidine]
Increase of pain threshold (pain threshold; oral dose 10 mg/kg): 12 mmHg | Increase of pain threshold (pain threshold; oral dose 30 mg/kg): 31 mmHg | Increase of pain threshold (pain threshold; oral dose 90 mg/kg): 68 mmHg | % Inhibition 3 hrs after carrageenin ([1]; oral dose 25 mg/kg): 40% | % Inhibition 3 hrs after carrageenin ([1]; oral dose 50 mg/kg): 62% | % Inhibition 3 hrs after carrageenin ([1]; oral dose 100 mg/kg): 71% | % with lesions (stomachs; oral dose 25 mg/kg): 0% | Mean severity (stomachs; oral dose 25 mg/kg): 0 | % with lesions (stomachs; oral dose 50 mg/kg): 20% | Mean severity (stomachs; oral dose 50 mg/kg): 0.9 | % with lesions (stomachs; oral dose 100 mg/kg): 40% | Mean severity (stomachs; oral dose 100 mg/kg): 1.7 | % Inhibition of the swelling, 18th day, primary ([2]; daily oral dose 5 mg/kg): 23.5% | % Inhibition of the swelling, 18th day, secondary ([2]; daily oral dose 5 mg/kg): 14.9% | % Inhibition of the swelling, 28th day, primary ([2]; daily oral dose 5 mg/kg): 21.4% | % Inhibition of the swelling, 28th day, secondary ([2]; daily oral dose 5 mg/kg): 32.1% | % Inhibition of the swelling, 18th day, primary ([2]; daily oral dose 10 mg/kg): 29.2% | % Inhibition of the swelling, 18th day, secondary ([2]; daily oral dose 10 mg/kg): 54.4% | % Inhibition of the swelling, 28th day, primary ([2]; daily oral dose 10 mg/kg): 42.7% | % Inhibition of the swelling, 28th day, secondary ([2]; daily oral dose 10 mg/kg): 68.7% | % Inhibition of the swelling, 18th day, primary ([2]; daily oral dose 30 mg/kg): 44.2% | % Inhibition of the swelling, 18th day, secondary ([2]; daily oral dose 30 mg/kg): 53.2% | % Inhibition of the swelling, 28th day, primary ([2]; daily oral dose 30 mg/kg): 69.4% | % Inhibition of the swelling, 28th day, secondary ([2]; daily oral dose 30 mg/kg): 69.2% | % Inhibition of the swelling, 18th day, primary ([2]; daily oral dose 60 mg/kg): 51.6% | % Inhibition of the swelling, 18th day, secondary ([2]; daily oral dose 60 mg/kg): 73.4% | % Inhibition of the swelling, 28th day, primary ([2]; daily oral dose 60 mg/kg): 74.2% | % Inhibition of the swelling, 28th day, secondary ([2]; daily oral dose 60 mg/kg): 82.6% | LD50 at 192 h [3]: > 1000 mg/kg | Antipyretic index ([4]; oral dose 25 mg/kg): 2.2 | Antipyretic index ([4]; oral dose 50 mg/kg): 5.6 | IC50 (prostaglandin synthetase): 2.46 µM
